Values quoted from earlier work as cited in patent EP4729597A1, “LOW-ALCOHOL BEER-LIKE BEVERAGE AND METHOD FOR PRODUCING LOW-ALCOHOL BEER-LIKE BEVERAGE” (Asahi Group Holdings, Ltd., priority 2023, dated 2024).
Read-outs that look alike come from different tables or passages of the source.

[1] = Table 1, octanol/water partition coefficient

For `CC(C)=CCCC(C)CCO` (centres unmarked) [Citronellol], the LogP [1] is listed as 3.9 and the LogP (Table 3) is listed as 3.9.
In the case of `CCCCCCCC(=O)OCC` [Ethyl octanoate], the LogP [1] is given as 3.8 and the LogP (Table 3) is given as 3.8.
In the case of `CC(C)=CCC/C(C)=C/CO` [Geraniol], the LogP [1] is given as 3.6 and the LogP (Table 3) is given as 3.6.
In the case of `CC(=O)OCCC(C)C` [Isoamyl acetate], the LogP is given as 2.3 and the LogP (Table 3) is given as 2.3.
In the case of `C=CC(=C)CCC=C(C)C` [Myrcene], the LogP [1] is listed as 4.3 and the LogP (Table 3) is listed as 4.3.
In the case of `CC(=O)/C=C/C1=C(C)CCCC1(C)C` [β-ionone], the LogP [1] is listed as 4.0.
